Source: patent US20230212146A1, “TRIARYLPYRIDINE COMPOUNDS AND USE THEREOF FOR TREATING CANCER” (INSTITUT NATIONAL DE LA SANTEET DE LA RECHERCHE …, priority 2020, published 2023)

How the values were obtained:
[1] = tested on: F21T oligonucleotide (human telomeric intramolecular quadruplex); assay: FRET melting analysis, G-quadruplex stabilization; format: binding; conditions: compounds at 1-10 μM, 0.2 μM F21T, 10 mM KCl, 90 mM LiCl, pH 7.2
Method: Ordinate: melting temperature (Tm) in Celsius scale (° C.). Abscissa (from left to right): (i) Compounds 1a at 10 μM, 5 μM, 2.5 μM, 1 μM; (ii) Compounds 1b at 10 μM, 5 μM, 2.5 μM, 1 μM; (iii) Compounds 1c at 10 μM, 5 μM, 2.5 μM, 1 μM.
FRET melting experiments were conducted using the F21T oligonucleotide.

HeLa cells = assay: MTT cell viability assay; format: cell-based, human; conditions: 24 h treatment, mean of 4 independent experiments in quadruplicate
Method: HeLa cells were treated with 1 μM to 10 μM concentrations of compounds 20A (▾), 1a (grey ▴), 1b (●) and 1c (▪) for 24h. Cell viability was assessed by the MMT assay. Plotted are mean±SD of one representative experiment each performed in quadruplicate. IC50 is scored for each compound from 4 independent experiments performed in quadruplicate. Ordinate: Percentage of HeLa cell viability. Abscissa: Concentrations of compounds 20A, 1a, 1b and 1c.
MTT assay was used to monitor cell viability in HeLa cells subjected to different treatments. Briefly, cells were seeded in a 96-well plate (4×10^3 cells/well). After 24 h of treatment of cells with drug, MTT was added to each well to a final concentration of 0.5 mg/ml during 3 h at 37° C. The supernatant of cells was then removed, and 100 μl of DMSO was added per well. The absorbance in each well was measured at 570 nm and 630 nm using a Flexstation 3 microplate reader (Molecular Devices). 4 independent experiences were conducered, each performed in quadruplicate. To determine the IC50 of compounds 20A, 1a, 1b and 1c, a non-linear regression curve was fit using GraphPad Prism software.

[2] = tested on: U2OS expressing Galectin3-mCherry cells; assay: Lysosomal membrane permeabilization (LMP), quantification of Galectin 3 puncta; format: cell-based, human; conditions: 24 h, 2 μM of 1a, 1 μM of 1b, 1 μM of 1c; for percentage of cells with Gal3 puncta: compound alone, without chloroquine; for percentage of Gal3 puncta positive cells: with 25 μM chloroquine
Method: The data are presented as the mean percentage of 15 values from 5 randomly chosen area in each of the three independent experiments. Ordinate: Percentage of cells with Galectin3 puncta.
Lysosomal membrane damage was assessed thanks to U2OS expressing Galectin3-mCherry cells. […] Cells were then washed with PBS, fixed with 4% (v/v) paraformaldehyde for 10 min at room temperature and then nucleic were counterstained for 15 min with Hoechst 33258. Image acquisition was made with a Leica DMI8 epifluorescence microscope, with a ×20 objective (NA 0.40) equipped with a digital CMOS camera (Hamamatsu photonics) and filter bloc for detection of phase contrast and blue (exc: 325-375 nm/em: 435-485 nm) and red (exc: 541-551 nm/em: 565-605 nm) fluorescence. Each image was collected with identical exposure times and scaled equally. Five images were acquired for each condition and then analyzed thanks to ImageJ software (Schneider et al., 2012, 9(7): 671-675) in order to count manually the number of cells, and automatically the number of Galectin3 punctae within each cell by using the “Find Maxima” tool.

Compound: CSc1ccc(-c2cc(-c3ccc(-n4cc(CCCN5CCN(C)CC5)nn4)cc3)nc(-c3ccc(-n4cc(CCCN5CCN(C)CC5)nn4)cc3)c2)cc1 [Compound 1b]
- stabilization of the F21T quadruplex (melting temperature Tm) [1]: stabilize an intramolecular quadruplex
- IC50 (HeLa cells): 3.15 µM
- percentage of cells with Gal3 puncta [2]: 31%
- percentage of Gal3 puncta positive cells [2]: 56%

Compound: CSc1ccc(-c2cc(-c3ccc(-n4cc(CCCN5CCCC5)nn4)cc3)nc(-c3ccc(-n4cc(CCCN5CCCC5)nn4)cc3)c2)cc1 [Compound 1a]
- stabilization of the F21T quadruplex (melting temperature Tm) [1]: stabilize an intramolecular quadruplex
- IC50 (HeLa cells): 4.34 µM
- percentage of cells with Gal3 puncta [2]: 26%
- percentage of Gal3 puncta positive cells [2]: 57%

Compound: CSc1ccc(-c2cc(-c3ccc(-n4cc(CCN5CCN(C)CC5)nn4)cc3)nc(-c3ccc(-n4cc(CCN5CCN(C)CC5)nn4)cc3)c2)cc1 [Compound 1c]
- stabilization of the F21T quadruplex (melting temperature Tm) [1]: stabilize an intramolecular quadruplex
- IC50 (HeLa cells): 3.62 µM
- percentage of cells with Gal3 puncta [2]: 25%
- percentage of Gal3 puncta positive cells [2]: 45%
